Measured values: patent US9505798B2, “Steroid compounds as RORyt modulators and uses thereof” (New York University, priority 2010, dated 2016)

Tests used:
Assay type in all cases: cell-based
[1] = tested on: human Th17 cell differentiation; test: Human Th17 cell differentiation from naive cord blood CD4+ T cells
Description: GFP expressing cells were gated for analysis. DMSO, Dig(dhd) (40 μM) or Dig(sal) (10 μM) was added 6-8 h after viral transduction. c, Flow cytometry of the production of IL-17a and IFN-γ by human naive cord blood T cells cultured for six days in the presence of IL-2, IL-23, and IL-1β, with various concentrations of TGF-β. DMSO, Dig(dhd), or Dig(sal) at indicated concentrations (μM) was added 16 h after cytokine addition.
Blood samples were obtained from the New York Blood Center. Mononuclear cells were prepared from buffy coats from healthy adult donors or from cord blood, using FicollPAQUE gradients. CD4^+ T cells were magnetically selected (autoMACS, Miltenyi). Adult memory CD4^+ T cell subsets were further purified as CD3^+CD4^+CD25^− CD45RO^+CCR6^+CD161^+ by cell sorting on a FACSAria (BD). Naive CD4^+ T cells were isolated from cord blood as CD3^+CD4^+CD45RA^+HLA-DR^−CD25^−DAPI^−. Memory cells were activated with anti-CD3/CD28 coated beads (1 bead/cell) in T cell media (see above) supplemented with 100 U/mL IL-2 (Peprotech), 10 ng/mL IL-1b and 10 ng/mL IL-23 (eBioscience). Naive cells were activated with anti-CD3/CD28 beads and cultured with the same cytokines, and TGF-b (0, 0.1, 1, or, 10 ng/mL) (Peprotech), in XVIVO-20 (Lonza) media. […] Naive CD4^+ T cells, cultured in XVIVO-20 media supplemented 100 U/mL IL-2 (Peprotech), were transduced with RORad-IRES-GFP or RORγt-IRES-GFP on day 1 and analyzed on day 6. GFP expressing cells were gated for analysis. DMSO or compounds were added 6-8 hours after the viral transduction.
Blood samples were obtained from the New York Blood Center. Mononuclear cells were prepared from buffy coats from healthy adult donors or from cord blood, using FicollPAQUE gradients. CD4^+ T cells were magnetically selected (autoMACS, Miltenyi). Adult memory CD4+ T cell subsets were further purified as CD3^+CD4^+CD25^−CD45RO^+CCR6^+CD161^+ by cell sorting on a FACSAria (BD). Naive CD4^+ T cells were isolated from cord blood as CD3^+CD4^+CD45RA^+HLA^−DR^−CD25^−DAPI^−. Memory cells were activated with anti-CD3/CD28 coated beads (1 bead/cell) in T cell media (see above) supplemented with 100 U/mL IL-2 (Peprotech), 10 ng/mL IL-1β and 10 ng/mL IL-23 (eBioscience). Naive cells were activated with anti-CD3/CD28 beads and cultured with the same cytokines, and TGF-β (0, 0.1, 1, or, 10 ng/mL) (Peprotech), in XVIVO-20 (Lonza) media. […] Naive CD4+ T cells, cultured in XVIVO-20 media supplemented with 100 U/mL IL-2 (Peprotech), were transduced with RORαd-IRES-GFP or RORγt-IRES-GFP on day 1 and analyzed on day 6. GFP expressing cells were gated for analysis. DMSO or compounds were added 6-8 hours after the viral transduction.

human androgen receptor = target: T1, human androgen receptor (Homo sapiens, UniProt P10275); test: S2 cell human androgen receptor reporter
T1 construct: expressed in transfected cells; host or cells: Drosophila S2 cells, plasmid pMK33-hAR
T1 sequence (P10275 whole entry): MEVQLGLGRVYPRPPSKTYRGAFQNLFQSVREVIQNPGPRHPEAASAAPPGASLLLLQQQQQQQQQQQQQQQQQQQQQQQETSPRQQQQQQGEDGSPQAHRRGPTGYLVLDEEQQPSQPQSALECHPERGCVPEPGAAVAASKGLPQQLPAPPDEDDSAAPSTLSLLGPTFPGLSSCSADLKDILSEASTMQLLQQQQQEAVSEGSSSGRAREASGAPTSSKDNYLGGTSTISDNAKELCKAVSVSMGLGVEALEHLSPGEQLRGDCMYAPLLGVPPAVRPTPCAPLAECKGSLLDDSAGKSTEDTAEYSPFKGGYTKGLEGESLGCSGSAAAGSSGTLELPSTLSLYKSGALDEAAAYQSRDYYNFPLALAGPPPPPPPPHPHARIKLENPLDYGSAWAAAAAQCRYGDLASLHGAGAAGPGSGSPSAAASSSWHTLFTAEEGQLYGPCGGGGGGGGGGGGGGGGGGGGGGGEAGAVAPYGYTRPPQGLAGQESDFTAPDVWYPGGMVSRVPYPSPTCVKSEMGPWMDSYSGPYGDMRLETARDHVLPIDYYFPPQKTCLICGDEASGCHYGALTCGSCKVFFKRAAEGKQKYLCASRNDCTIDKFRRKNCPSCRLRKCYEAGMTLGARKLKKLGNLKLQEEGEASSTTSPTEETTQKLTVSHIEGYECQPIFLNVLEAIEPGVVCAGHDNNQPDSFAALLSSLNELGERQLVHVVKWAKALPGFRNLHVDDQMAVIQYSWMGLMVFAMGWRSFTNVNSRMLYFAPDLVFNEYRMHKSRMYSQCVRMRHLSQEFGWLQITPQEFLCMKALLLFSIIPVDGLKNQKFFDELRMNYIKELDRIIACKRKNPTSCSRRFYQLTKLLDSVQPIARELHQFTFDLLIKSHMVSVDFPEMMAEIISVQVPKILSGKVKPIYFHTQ

[2] = tested on: mouse Th17 cell differentiation; test: In vitro mouse naive CD4+ T cell polarization
Description: Naive CD25^− CD62L^+CD44^low/int cells were sorted from RORγt^fl/fl mice and transduced with control-IRES-GFP (WT) or CRE-IRES-GFP (KO) retrovirus. […] FACS-sorted naive T cells were transduced with retroviral vectors encoding murine RORα-IRES-GFP or RORγt-IRES-GFP on Day 1 (16 h after TCR stimulation) and GFP expressing cells were gated for analysis on Day 5. […] Lymphocytes were isolated on day 21 after disease induction. The cells were stimulated for 4 h with PMA/Ionomycin and stained for surface markers and intracellular cytokines.
T cells were purified from lymph nodes and spleens of six to eight weeks old B6 mice (Taconic), by magnetically depleting B220^+ cells (autoMACS, Miltenyi), and then sorting CD8^−DAPI^−CD19^−CD4^+CD25^−CD62L^+CD44^low/Int naive T cells on a FACSAria (BD). […] For T cell polarization, 200 μl cells were seeded at 0.4×10^5 cells per mL in 96-well plates pre-coated with anti-CD3ε (5 μg/mL) and anti-CD28 (10 μg/mL). Cells were cultured for 4-5 days in Th17 (TGF-β (0.3 ng/mL), IL-6 (20 ng/mL), and anti-IFN-γ and anti-IL-4 (2 ng/mL)), Th1 (IL-12 (10 ng/mL), IL-2 (10 U/mL) and anti-IL-4 (2 ng/mL)), or Th2 (IL-4 (10 ng/mL), and anti-P35 and anti-IFN-γ 2 ng/mL)) conditions. For ectopic expression ROR proteins, native CD4^+ T cells were infected with retroviral MIGr-control, MIGr-RORα or MIGr-RORγ 24 hrs after activation, and cultured without exogenous cytokines or only with IL-6. At day 1, compounds dissolved in DMSO were added. For cytokine analysis, cells were incubated for 5 hours with phorbol 12-myristate 13-acetate (50 ng/mL; Sigma), ionomycin (500 ng/mL; Sigma) and GolgiStop (BD). Intracellular cytokine staining was performed according to the manufacturer's protocol (Cytofix/Cytoperm buffer set from BD) with alexa647-conjugated anti-IL-17a (eBioscience), and PE-conjugated anti-IFN-γ or anti-IL-4 (eBioscience). An LSR II (BD Biosciences) and FlowJo software (Tree Star) were used for flow cytometry and analysis. Dead cells were excluded using the Live/Dead fixable aqua dead cell stain kit (Invitrogen).
Complementary DNAs (cDNAs) were synthesized from TRIzol (Invitrogen) isolated RNA, using M-MLV Reverse Transcriptase (Promega). Real-time RT-PCR was performed with SYBRgreen master mix (Roche) and the Roche real-time PCR system (Roche480). Gene specific values were normalized to Actb for each sample.

| Compound | expression of CCR6 [1] | IFN-γ expression in T cells ([1]; FIG. 3c) | Th17 cell differentiation ([1]; FIG. 3c) | inhibition at 40 µM ([1]; Homo sapiens, CD4+ T, read-out: Th17 inhibition) [%] | inhibition of human androgen receptor activity (human androgen receptor) | differentiation of naive CD4+ T cells into Th1, Th2 and regulatory T cells [2] | induction of RORγt mRNA and protein expression ([2]; Th17 conditions) | transcriptional up-regulation of IL-23 receptor (IL-23R) gene ([2]; Th17 polarizing conditions) | expression of IL-17a mRNA and protein ([2]; Th17 polarizing conditions, 10 μM) |
| --- | --- | --- | --- | --- | --- | --- | --- | --- | --- |
| CC1O[C@@H](OC2C(C)O[C@H](OC3C(C)O[C@@H](O[C@H]4CC[C@@]5(C)[C@H](CC[C@@H]6[C@@H]5C[C@@H](O)[C@]5(C)[C@@H](C(CO)CCO)CC[C@]65O)C4)C[C@H]3O)C[C@H]2O)C[C@@H](O)C1O (stereo partly drawn) [Compound 13, 20,22-Dihydrodigoxin-21,23-diol] | reduced | reciprocal increases | blocked | ~80 | – | – | – | – | – |
| C[C@H]1O[C@@H](O[C@H]2[C@@H](O)C[C@H](O[C@H]3[C@@H](O)C[C@H](O[C@H]4CC[C@@]5(C)[C@H](CC[C@@H]6[C@@H]5C[C@@H](O)[C@]5(C)[C@@H](C7=CC(=O)OC7)CC[C@]65O)C4)O[C@@H]3C)O[C@@H]2C)C[C@H](O)[C@@H]1O [Digoxin] | – | – | – | – | did not inhibit | no effect | not affected | strongly inhibited | markedly reduced |
